Active and inactive are the calls of the source.
Experiments:
[1] = Trypanosoma cruzi growth suppression in host cells – NIH3T3 host cells, beta-gal luminescence, confirmation (AID 2044); format: functional, cell-based;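 also: intracellular parasites grown in NIH/3T3 mouse fibroblasts as host cells; luminescent beta-galactosidase reporter signal from transgenic T. cruzi replicating inside host cells; inhibitors lower the luminescence signal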
Vero = assay: mammalian cell viability reduction – secondary assay, cytotoxicity control for West Nile virus antiviral project, dose response (AID 1650); format: functional; conditions: Chlorocebus sabaeus
[2] = NIH3T3 cell viability loss – ATP luminescence, mouse fibroblasts, counter-screen, dose response (AID 2010); format: functional, cell-based;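 also: cells exposed to compound for about 90 hours before reading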
[3] = target: Glutathione-S-transferase (Schistosoma japonicum, UniProt Q26513); assay: GST-antibody interaction or FRET quenching – biochemical, TR-FRET, artefact control for Vif-APOBEC3G degradation inhibitor project, dose response (AID 1117362); format: functional
Glutathione-S-transferase, sequence (Q26513 whole entry): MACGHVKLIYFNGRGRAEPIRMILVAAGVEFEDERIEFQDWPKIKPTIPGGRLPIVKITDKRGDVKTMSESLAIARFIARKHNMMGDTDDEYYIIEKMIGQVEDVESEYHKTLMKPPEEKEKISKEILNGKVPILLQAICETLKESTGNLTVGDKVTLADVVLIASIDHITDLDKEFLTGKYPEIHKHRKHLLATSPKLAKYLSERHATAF

[4] = target: T1, Zinc finger protein mex-5 (Caenorhabditis elegans, UniProt Q9XUB2); assay: potency of MEX-5 RNA-binding blockers – biochemical, C. elegans, fluorescence polarization, dose response (AID 1960)
T1 sequence (Q9XUB2 whole entry): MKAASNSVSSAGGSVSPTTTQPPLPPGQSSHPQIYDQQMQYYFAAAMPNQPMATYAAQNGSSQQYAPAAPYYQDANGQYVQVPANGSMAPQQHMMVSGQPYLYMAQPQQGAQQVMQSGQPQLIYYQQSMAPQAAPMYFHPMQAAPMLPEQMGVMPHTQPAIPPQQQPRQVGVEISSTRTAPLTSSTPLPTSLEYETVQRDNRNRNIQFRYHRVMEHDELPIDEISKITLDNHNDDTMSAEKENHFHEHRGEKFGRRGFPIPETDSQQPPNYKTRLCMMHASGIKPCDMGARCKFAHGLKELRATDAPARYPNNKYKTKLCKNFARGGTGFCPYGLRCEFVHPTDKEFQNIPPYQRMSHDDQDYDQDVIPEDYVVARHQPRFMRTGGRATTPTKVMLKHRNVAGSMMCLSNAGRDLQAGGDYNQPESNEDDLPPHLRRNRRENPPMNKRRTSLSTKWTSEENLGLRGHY

[5] = target: T2, Polyadenylate-binding protein 1 (Homo sapiens, UniProt P11940); assay: MLLE binding blockers, Cy5 peptide tracer – biochemical, fluorescence polarization, Cy5-PAM2 peptide, secondary, miRNA deadenylation inhibitor project, dose response (AID 602260); format: functional; conditions: read-out: IC50_Mean
T2 sequence (P11940 whole entry, the tested form may be a part): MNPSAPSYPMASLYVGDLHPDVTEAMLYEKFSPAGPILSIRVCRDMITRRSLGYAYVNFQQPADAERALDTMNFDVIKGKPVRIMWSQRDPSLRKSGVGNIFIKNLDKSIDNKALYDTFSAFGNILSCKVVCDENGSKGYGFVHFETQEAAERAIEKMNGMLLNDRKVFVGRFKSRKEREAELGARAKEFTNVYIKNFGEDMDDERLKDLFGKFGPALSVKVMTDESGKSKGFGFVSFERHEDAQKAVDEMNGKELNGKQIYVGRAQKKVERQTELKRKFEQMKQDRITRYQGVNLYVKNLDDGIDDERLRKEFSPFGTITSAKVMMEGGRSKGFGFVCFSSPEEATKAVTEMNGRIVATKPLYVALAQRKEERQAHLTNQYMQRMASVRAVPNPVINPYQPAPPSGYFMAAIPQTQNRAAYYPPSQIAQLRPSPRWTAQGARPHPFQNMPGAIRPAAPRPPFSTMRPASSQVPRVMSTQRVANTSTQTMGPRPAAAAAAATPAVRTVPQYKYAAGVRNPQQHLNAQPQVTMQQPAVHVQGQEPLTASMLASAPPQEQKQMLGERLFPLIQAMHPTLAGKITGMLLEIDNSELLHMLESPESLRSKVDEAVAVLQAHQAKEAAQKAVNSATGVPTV

[6] = target: T2, Polyadenylate-binding protein 1; assay: MLLE domain peptide-binding blockers, IC50 – biochemical, fluorescence polarization, FITC-PAM2 peptide, dose response (AID 602259); format: functional; conditions: read-out: IC50_Mean
[7] = viability loss in THP-1 monocytes – THP-1 cells, cytotoxicity control for Vif-APOBEC3G degradation inhibitor project, dose response (AID 1117359); format: functional; conditions: THP-1
[8] = target: T3, RNA-binding protein pos-1 (Caenorhabditis elegans, UniProt G5EF15); assay: disruptors of C. elegans POS-1 RNA interaction – biochemical, fluorescence polarization, dose response (AID 1964);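 also: purified POS-1 fused to maltose binding protein made in E. coli; potency of compounds blocking POS-1 binding to fluorescent RNA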
T3 sequence (G5EF15 whole entry): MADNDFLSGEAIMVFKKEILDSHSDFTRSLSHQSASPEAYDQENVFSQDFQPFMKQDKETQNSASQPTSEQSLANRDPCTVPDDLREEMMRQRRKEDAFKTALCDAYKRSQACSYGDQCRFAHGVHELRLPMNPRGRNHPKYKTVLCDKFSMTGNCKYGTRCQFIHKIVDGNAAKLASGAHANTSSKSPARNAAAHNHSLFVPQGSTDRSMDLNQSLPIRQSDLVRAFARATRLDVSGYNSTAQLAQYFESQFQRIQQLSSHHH

[9] = target: T4, Histone-lysine N-methyltransferase NSD2 (Homo sapiens, UniProt O96028); format: biochemical
T4 sequence (O96028 whole entry): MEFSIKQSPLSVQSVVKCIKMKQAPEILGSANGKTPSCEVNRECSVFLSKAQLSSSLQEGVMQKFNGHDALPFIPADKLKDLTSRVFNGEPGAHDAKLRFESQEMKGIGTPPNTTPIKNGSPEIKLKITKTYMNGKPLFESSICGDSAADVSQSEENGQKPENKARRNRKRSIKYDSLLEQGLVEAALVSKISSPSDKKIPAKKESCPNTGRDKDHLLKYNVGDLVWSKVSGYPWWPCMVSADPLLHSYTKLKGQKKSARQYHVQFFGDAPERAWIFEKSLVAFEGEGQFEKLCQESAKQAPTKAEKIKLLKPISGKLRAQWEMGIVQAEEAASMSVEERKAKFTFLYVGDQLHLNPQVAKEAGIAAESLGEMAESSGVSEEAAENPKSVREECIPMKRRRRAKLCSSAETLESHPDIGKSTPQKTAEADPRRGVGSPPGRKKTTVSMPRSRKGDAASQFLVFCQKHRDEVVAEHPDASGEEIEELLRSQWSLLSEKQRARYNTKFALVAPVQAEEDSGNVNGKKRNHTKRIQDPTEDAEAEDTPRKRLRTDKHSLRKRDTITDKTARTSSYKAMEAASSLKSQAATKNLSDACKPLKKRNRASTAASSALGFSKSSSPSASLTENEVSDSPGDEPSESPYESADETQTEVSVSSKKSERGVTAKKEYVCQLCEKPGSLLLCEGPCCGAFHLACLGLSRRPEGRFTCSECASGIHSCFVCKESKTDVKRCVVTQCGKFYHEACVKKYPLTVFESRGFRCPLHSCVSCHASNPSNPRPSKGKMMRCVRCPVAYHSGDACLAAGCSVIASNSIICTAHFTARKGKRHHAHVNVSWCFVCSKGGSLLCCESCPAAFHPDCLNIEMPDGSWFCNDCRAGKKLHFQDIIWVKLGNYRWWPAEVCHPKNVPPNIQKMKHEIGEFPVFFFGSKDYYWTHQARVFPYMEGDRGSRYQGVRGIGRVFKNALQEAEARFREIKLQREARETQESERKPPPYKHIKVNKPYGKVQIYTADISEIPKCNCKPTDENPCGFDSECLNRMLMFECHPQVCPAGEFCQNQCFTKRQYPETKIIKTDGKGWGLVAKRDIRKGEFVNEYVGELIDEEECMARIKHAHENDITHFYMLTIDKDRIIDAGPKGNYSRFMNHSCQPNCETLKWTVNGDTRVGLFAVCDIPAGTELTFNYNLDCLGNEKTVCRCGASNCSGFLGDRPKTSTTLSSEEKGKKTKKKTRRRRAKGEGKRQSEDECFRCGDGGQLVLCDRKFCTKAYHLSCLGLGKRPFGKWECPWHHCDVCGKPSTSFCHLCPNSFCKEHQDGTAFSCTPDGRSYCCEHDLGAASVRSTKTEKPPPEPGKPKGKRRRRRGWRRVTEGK

[10] = target: Peroxisome proliferator-activated receptor gamma/Nuclear receptor corepressor 2 (Homo sapiens, UniProt P37231+Q9Y618); assay: Counterscreen for NR2E3 inverse agonists: TR-FRET-based biochemical high throughput dose response assay to identify inverse agonists of the interaction between peroxisome proliferator-activated receptor gamma (PPARg) and nuclear receptor co-repressor 2 (NCOR2).; format: functional
[11] = target: Photoreceptor-specific nuclear receptor (Homo sapiens, UniProt Q9Y5X4); assay: ligands suppressing NR2E3 nuclear receptor activity – biochemical, TR-FRET, dose response (AID 463256); format: functional
Photoreceptor-specific nuclear receptor, sequence (Q9Y5X4 whole entry): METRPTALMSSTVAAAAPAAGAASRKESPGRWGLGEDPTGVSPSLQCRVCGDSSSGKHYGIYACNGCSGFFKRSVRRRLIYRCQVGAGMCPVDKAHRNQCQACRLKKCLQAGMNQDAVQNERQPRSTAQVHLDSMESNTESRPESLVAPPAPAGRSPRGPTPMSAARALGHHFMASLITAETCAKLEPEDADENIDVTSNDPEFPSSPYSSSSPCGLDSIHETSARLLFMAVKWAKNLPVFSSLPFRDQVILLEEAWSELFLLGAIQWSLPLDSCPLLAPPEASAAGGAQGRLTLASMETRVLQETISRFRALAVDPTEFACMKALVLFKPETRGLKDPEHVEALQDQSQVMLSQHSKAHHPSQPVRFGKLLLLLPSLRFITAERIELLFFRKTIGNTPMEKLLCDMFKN

[12] = target: Voltage-gated inwardly rectifying potassium channel KCNH2 (Homo sapiens, UniProt Q12809); assay: concentration-dependent hERG rescue from blockers – cell-based, thallium flux, dose response (AID 2121); format: ADME
Voltage-gated inwardly rectifying potassium channel KCNH2, sequence (Q12809 whole entry): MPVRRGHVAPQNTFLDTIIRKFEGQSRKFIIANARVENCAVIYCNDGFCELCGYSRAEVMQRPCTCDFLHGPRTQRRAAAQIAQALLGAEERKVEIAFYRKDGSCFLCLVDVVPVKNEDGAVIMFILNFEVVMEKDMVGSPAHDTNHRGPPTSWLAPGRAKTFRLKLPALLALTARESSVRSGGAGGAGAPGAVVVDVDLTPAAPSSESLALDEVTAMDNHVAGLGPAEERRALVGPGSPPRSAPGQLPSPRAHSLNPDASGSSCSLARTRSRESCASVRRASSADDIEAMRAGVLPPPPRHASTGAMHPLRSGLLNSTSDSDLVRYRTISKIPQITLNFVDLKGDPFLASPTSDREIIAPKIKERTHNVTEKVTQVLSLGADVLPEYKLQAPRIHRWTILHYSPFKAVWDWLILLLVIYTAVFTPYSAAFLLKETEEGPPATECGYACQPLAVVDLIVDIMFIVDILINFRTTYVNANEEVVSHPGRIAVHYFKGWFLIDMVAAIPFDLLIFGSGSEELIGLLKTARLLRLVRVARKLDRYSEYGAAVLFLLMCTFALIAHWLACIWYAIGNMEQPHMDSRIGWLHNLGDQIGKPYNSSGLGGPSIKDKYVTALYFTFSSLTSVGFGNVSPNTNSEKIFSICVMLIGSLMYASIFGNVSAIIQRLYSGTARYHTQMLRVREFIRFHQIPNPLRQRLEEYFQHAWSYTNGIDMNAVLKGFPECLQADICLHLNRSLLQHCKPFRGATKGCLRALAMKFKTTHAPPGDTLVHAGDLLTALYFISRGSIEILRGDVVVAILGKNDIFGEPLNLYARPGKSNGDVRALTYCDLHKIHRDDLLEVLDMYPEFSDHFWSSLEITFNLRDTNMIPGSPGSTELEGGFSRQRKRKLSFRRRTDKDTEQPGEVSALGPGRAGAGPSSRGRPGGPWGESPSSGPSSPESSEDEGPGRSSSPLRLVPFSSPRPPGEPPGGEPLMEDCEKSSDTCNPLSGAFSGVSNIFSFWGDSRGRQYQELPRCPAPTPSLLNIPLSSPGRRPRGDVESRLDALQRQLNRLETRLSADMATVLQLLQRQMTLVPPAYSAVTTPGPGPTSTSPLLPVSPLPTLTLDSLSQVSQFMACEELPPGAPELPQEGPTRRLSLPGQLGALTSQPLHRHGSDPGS

[13] = target: T5, Dual specificity protein phosphatase 6 (Rattus norvegicus, UniProt Q64346); assay: inhibition of rat DUSP6 enzyme activity – biochemical, in vitro, primary screen (AID 425)
T5 sequence (Q64346 whole entry): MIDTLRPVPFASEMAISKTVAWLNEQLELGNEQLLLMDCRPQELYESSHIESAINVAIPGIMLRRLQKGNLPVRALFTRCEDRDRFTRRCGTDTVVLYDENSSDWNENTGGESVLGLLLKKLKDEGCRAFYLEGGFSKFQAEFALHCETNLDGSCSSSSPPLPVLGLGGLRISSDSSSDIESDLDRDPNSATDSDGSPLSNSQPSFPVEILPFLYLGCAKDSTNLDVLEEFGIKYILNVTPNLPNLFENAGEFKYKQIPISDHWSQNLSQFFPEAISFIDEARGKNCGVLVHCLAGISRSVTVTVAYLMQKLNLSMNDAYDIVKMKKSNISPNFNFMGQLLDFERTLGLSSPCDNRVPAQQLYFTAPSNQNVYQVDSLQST

[14] = target: Mannose-6-phosphate isomerase (Homo sapiens, UniProt P34949); assay: MPI inhibition at elevated mannose 6-phosphate – biochemical, fluorescence intensity, high mannose 6-phosphate, primary screen (AID 1220)
Mannose-6-phosphate isomerase, sequence (P34949 whole entry): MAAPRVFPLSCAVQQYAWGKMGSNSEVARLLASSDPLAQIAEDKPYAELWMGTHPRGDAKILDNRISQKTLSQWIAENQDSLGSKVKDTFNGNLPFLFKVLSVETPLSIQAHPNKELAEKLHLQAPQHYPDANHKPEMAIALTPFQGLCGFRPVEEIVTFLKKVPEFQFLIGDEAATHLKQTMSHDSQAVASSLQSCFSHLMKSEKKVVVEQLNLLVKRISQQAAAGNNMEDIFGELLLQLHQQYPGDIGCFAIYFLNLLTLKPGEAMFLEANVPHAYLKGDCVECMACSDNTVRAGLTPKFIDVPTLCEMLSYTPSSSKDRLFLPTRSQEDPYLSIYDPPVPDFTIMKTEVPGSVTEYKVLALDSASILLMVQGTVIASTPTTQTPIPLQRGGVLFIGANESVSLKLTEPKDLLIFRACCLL

[15] = M. tuberculosis H37Rv growth inhibitors, H37Rv strain (AID 1626); format: functional
[16] = target: T6, Corticotropin-releasing factor receptor 2/Corticotropin-releasing factor-binding protein (Homo sapiens, UniProt P24387+Q13324); assay: activators of CRF receptor 2 with binding protein – uHTS hits, confirmation (AID 602473); format: functional; conditions: read-out: EC50_Mean
T6 sequence (Q13324 whole entry): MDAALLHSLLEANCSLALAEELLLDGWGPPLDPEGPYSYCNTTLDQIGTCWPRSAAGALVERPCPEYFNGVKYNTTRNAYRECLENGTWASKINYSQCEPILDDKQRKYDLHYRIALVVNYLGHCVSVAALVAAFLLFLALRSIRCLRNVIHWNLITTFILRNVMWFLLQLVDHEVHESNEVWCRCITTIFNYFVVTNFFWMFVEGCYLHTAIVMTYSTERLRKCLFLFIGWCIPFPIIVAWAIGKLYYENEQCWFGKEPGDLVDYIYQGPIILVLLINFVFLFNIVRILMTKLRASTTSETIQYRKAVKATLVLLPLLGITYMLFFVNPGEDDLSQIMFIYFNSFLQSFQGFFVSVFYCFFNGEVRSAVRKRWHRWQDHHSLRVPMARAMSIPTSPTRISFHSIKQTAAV
T6 sequence (P24387 whole entry): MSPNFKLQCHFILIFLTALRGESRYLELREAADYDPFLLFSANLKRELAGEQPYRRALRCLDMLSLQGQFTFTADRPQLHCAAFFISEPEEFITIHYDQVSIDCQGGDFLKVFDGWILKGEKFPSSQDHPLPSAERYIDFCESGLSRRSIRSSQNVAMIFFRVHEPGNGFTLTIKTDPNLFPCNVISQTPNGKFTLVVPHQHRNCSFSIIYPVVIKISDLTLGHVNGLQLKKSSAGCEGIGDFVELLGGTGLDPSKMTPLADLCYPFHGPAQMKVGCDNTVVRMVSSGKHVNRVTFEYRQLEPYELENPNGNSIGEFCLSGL

[17] = Dd2 parasite growth inhibition in erythrocytes – SYBR Green, dry powder samples, set 9, dose response (AID 1159568); format: functional, cell-based
[18] = P. falciparum Dd2 growth inhibitors, dose response, SYBR Green, cherry-picked samples (AID 1159567); format: functional, cell-based
[19] = Dd2 malaria parasite growth inhibition potency – SYBR Green, dry powder samples, dose response (AID 1159566); format: functional, cell-based;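 also: potency for growth inhibition with lower SYBR green DNA signal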
[20] = growth inhibition of PfATP4-mutant resistant parasites – NITD609-resistant line, SYBR Green, dry powder, dose response (AID 1159571); format: functional, cell-based;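 also: parasites synchronized at ring stage by sorbitol before testing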
[21] = growth inhibition of yeast DHODH-expressing 3D7 parasites – SYBR Green, dry powder samples, dose response (AID 1159570); format: functional, cell-based;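 also: parasite growth measured after 72 hours of compound exposure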
[22] = Luminescence-based dose response cell-based high throughput screening assay for cytotoxic compounds using the IEC-6 intestinal epithelial cell line. [Related pubchem assays: 1858 (Summary AID.), 1825 (Counterscreen.), 1907 (Confirmation screen.)]; format: functional

O=[N+]([O-])c1ccc(NC2CCN(Cc3ccccc3)CC2)c2ccncc12
EC50 [1]: 0.811 µM (active) | CC50 (Vero): > 100 µM (active) | EC50 [2]: > 60 µM (not active)

CCn1c(C)cc(=S)c2ccccc21
IC50 [3]: > 100 µM (active) | EC50 [4]: > 300 µM (not active) | IC50 [5]: > 66 µM (inactive) | IC50 [6]: > 66 µM (inactive) | CC50 [7]: > 40 µM (active) | EC50 [8]: > 300 µM (not active) | AC50 [9]: 17 µM (active)

CC(=O)c1ccc(C(=O)Nc2sc3c(c2C(N)=O)CCN(Cc2ccccc2)C3)cc1
EC50 [4]: > 300 µM (inconclusive) | IC50 [10]: 4.93 µM (active) | EC50 [8]: > 300 µM (not active) | IC50 [11]: 6 µM (active)

CCOc1ccccc1NC(=S)NC(=O)c1ccco1
EC50 [12]: 1.25 µM (active)

CCOc1ccc2nc(Nc3nc4c(c(=O)[nH]3)CCC4)nc(C)c2c1
IC50 [13]: 36.8 µM (active)

CNC(=O)c1ccc(NC(=O)CN2c3cccc4cccc(c34)S2(=O)=O)cc1
EC50 [12]: 7.62 µM (active)

COc1ccc(NC(=O)N2c3ccc(OC)cc3C(C)=CC2(C)C)cc1
IC50 [3]: > 100 µM (active) | IC50 [14]: > 50 µM (not active) | CC50 [7]: > 40 µM (active)

COc1ccc(NC(C#N)c2ccc(OC)cc2)cc1 (stereo not given)
IC50 [15]: > 100 µM (active)

Cc1ccc(C(OCC(O)CNC(C)c2ccccc2)c2ccccc2)cc1 (stereo not given)
CC50 (Vero): 18.9 µM (active)

Clc1ccc(-c2ccc(/C=N/c3ccc(N4CCOCC4)cc3)o2)c(Cl)c1
EC50 [16]: 6.68 µM (active) | IC50 [15]: > 100 µM (active)

N#C[C@@H]1[C@H](c2ccccc2)[C@H](CO)N1C(=O)Nc1cccc(F)c1
AC50 [17]: 0.968 µM (active)

C[C@@H]1CN([C@H](C)CO)C(=O)c2cc(NC(=O)Nc3ccc4c(c3)OCO4)ccc2O[C@@H](C)CCCCO[C@H]1CN(C)S(=O)(=O)c1ccccc1
AC50 [17]: 2.22 µM (active)

COc1cccc(C#Cc2ccc([C@H]3[C@@H](CO)N(C(=O)C4CCC4)[C@H]3C#N)cc2)c1
AC50 [18]: 1.2 µM (active) | AC50 [19]: 0.636 µM (active) | AC50 [20]: 1.41 µM (active) | AC50 [21]: 1.17 µM (active)

COc1ccc2c3c(n(C)c2c1)[C@@H](CO)N(C(=O)c1ccc(F)cc1)CC31CN(C(=O)Nc2ccc(F)cc2)C1
AC50 [18]: 1.79 µM (active) | AC50 [19]: 1.22 µM (active) | AC50 [20]: 0.999 µM (active) | AC50 [21]: 1.26 µM (active)

C=C1[C@@H](C)[C@H]2[C@H](Cc3ccccc3)NC(=O)[C@]23OC(=O)/C=C/[C@H](O)CCC[C@@H](C)C/C=C/[C@H]3[C@@H]1O [CYTOCHALASIN B]
IC50 [22]: 0.424 µM (active)

Source: ChEMBL document CHEMBL1201862, “PubChem BioAssay data set” (2004)
